Assay results as given in patent US11479587B2, “Cationic intrinsically disordered antimicrobial peptides” (priority 2016, dated 2022).
Several values for one entry are separate records, joined by “and”; a condition that tells them apart may be missing. Equal values may be shown once. Residues, ends and D or L forms follow the SMILES beside them. Primed or numbered codes have the meaning given here. No end group written: not given here. FITC′ = fluorescein isothiocyanate

Key:
[1] = Cytotoxicity (resazurin) assay
Experimental: For the cytotoxicity (resazurin) assay, HEK293 cells were counted manually in a Neubauer haemocytometer and plated at a density of 4000 cells/well into each well of the 384-well plates containing the 25×(2 μl) concentrated compounds. The medium used was Dulbecco's modified eagle medium (DMEM) supplemented with 10% foetal bovine serum (FBS). Cells were incubated together with the compounds for 20 h at 37° C., 5% CO2. To measure cytotoxicity, 5 μl (equals 100 μM final) resazurin was added to each well after incubation, and incubated for further 3 h at 37° C. with 5% CO2.
After final incubation fluorescence intensity was measured as F ex 560/10 nm, em 590/10 nm (F560/590) using a Tecan M1000 Pro monochromator plate reader. […] The concentration dependent percentage cytotoxicity was fitted to a dose response function (using Pipeline Pilot) and CC50 values determined.

[2] = Hemolysis assay; type: cell-based; conditions: for HC50 at 1 h: human, washed erythrocytes from EDTA-blood, pH 7.4
Experimental: For the hemolysis assays EDTA-blood was centrifuged at 800×g for 10 min, and the plasma and buffy coat were removed. The erythrocytes were washed three times and resuspended in 5% PBS, pH 7.4. The cells were then incubated with end-over-end rotation for 1 h at 37° C. in the presence of different concentrations of peptides (0, 3, 10, 30, 60 μm). 0.1% Triton X-100 (Sigma-Aldrich) served as positive control. The samples were then centrifuged at 800×g for 10 min.
The absorbance of hemoglobin release was measured at 540 nm and is expressed as % of Triton X-100-induced hemolysis. These values of triplicates were plotted with Graph Pad Prism 4 as a dose response curve and the CC50 was determined.

[3] = tested on: S. aureus ATCC 6538; experiment: CFU-assay, S. aureus-cidal activity; type: cell-based, Staphylococcus aureus
Experimental: Thus, within the present invention, the antimicrobial activity is generally measured in nutrient deficient 10 mM sodium phosphate buffer pH 5.5, containing 0.25% glucose, using the CFU-assay according to Steinberg and Lehrer, 1997 (supra), unless otherwise indicated. The CFU-assay allows determination of the minimal bactericidal concentration (MBC, e.g., MBC90 and MBC100; i.e. the concentration of compound required to achieve a specified reduction in bacterial cell number (microbial death or killing)).
Various peptides corresponding to repeat domains of hornerin (HR 1-11: HRNR 2606-2628; HR 1-17: HRNR 2656-2684 and HR 1-18: HRNR 2656-2677) were tested for P. aeruginosa ATCC 10145-cidal activity in 10 mM Na-phosphate buffer pH 5.5, containing 0.25% glucose by counting the numbers of colonies of surviving bacteria at serial, twofold dilutions from 300 μg/ml down to 19 ng/ml of each peptide (CFU-assay; Steinberg and Lehrer, 1997, Methods Mol. Biol. 78, 169-186).
Staphylococcus aureus is a major skin pathogen, which causes skin infections, in particular in atopic dermatitis. The sensitivity of S. aureus ATCC 6538 towards several CIDAMPs was assessed using the CFU-assay as above (see Example 1). HR 1-18, which lacks S. aureus.-bactericidal activity, is converted in a S. aureus-cidal peptide, when all His are replaced by Arg (HR 1-18 4H-4R; see Table 13 and FIG. 9). […] HR 1-18 4H-4R is rich in Ser and Arg and contains a single Leu residue. When this single Leu was replaced by Gly in S. aureus-cidal HR 1-18 4H-4R (forming HR 1-18 4H-4R/L-G), S. aureus-cidal activity was abolished at both pH 7.0 and pH 5.5 (see Table 13 and FIG. 9).

[4] = tested on: C. albicans ATCC 928; conditions: standard conditions at pH 7.4; activity at concentration <32 pg/ml
[5] = tested on: C. neoformans; conditions: standard conditions at pH 7.4; activity at concentration <32 pg/ml
[6] = tested on: Candida albicans ATCC 24433; experiment: CFU-assay, Candida albicans-cidal activity; type: cell-based
Experimental: Thus, within the present invention, the antimicrobial activity is generally measured in nutrient deficient 10 mM sodium phosphate buffer pH 5.5, containing 0.25% glucose, using the CFU-assay according to Steinberg and Lehrer, 1997 (supra), unless otherwise indicated. The CFU-assay allows determination of the minimal bactericidal concentration (MBC, e.g., MBC90 and MBC100; i.e. the concentration of compound required to achieve a specified reduction in bacterial cell number (microbial death or killing)). […]
HR 1-17 affects C. albicans ATCC 24433 with highest activity at pH 5.5 in the absence of TSB in the medium (see Tables 12, 24). […] Furthermore, the substitution of any of the Arg residues by Gly leads to a dramatic reduction or loss of candidacidal activity (see Table 24).

[7] = tested on: P. aeruginosa ATCC 10145; experiment: CFU-assay, P. aeruginosa-cidal activity; type: cell-based, Pseudomonas aeruginosa

Compound: N=C(N)NCCC[C@H](NC(=O)[C@H](CCCNC(=N)N)NC(=O)[C@H](CS)NC(=O)[C@H](CCCNC(=N)N)NC(=O)[C@H](Cc1c[nH]cn1)NC(=O)[C@H](CO)NC(=O)[C@H](CCCNC(=N)N)NC(=O)[C@H](CS)NC(=O)[C@H](CS)NC(=O)[C@H](CCCNC(=N)N)NC(=O)[C@H](Cc1c[nH]cn1)NC(=O)[C@H](Cc1c[nH]cn1)NC(=O)[C@@H](N)CO)C(=O)O [LCE3B56-68] (H-SHHRCCRSHRCRR-OH; N-terminus and C-terminus assumed)
- CC50 [1]: > 32 µg/mL and > 18.9 µM
- CC50 [2]: > 300 µg/mL
- HC50 at 1 h [2]: > 113 µM
- S. aureus MBC90 ([3]; pH 5.5): 0.044 µM
- S. aureus MBC100 ([3]; pH 5.5): >88.7 µM
- MBC90 ([3]; pH 5.5, 0.25% glucose): 0.075 µg/mL
- MBC100 ([3]; pH 5.5, 0.25% glucose): >150 µg/mL
- max.killing ([3]; pH 5.5, 0.25% glucose): max.killing: 99.3%
- MBC90 ([3]; pH 5.5, 0.25% glucose (text)): 0.044 µM
- Antifungal activity, C. albcans ATCC90028 [4]: I (I-inactive)
- Antifungal activity, C. neoformans ATCC 208821 [5]: A (A-active)

Compound: CCCCCCCCCCCCCCCC(=O)NCC(=O)N[C@@H](CCCCN)C(=O)NCC(=O)N[C@@H](CCCCN)C(=O)O [Pal-GK4, Pal-GKGK] (HELM PEPTIDE1{[CCCCCCCCCCCCCCCC(=O)[*:2]].G.K.G.K}$$$$V2.0)
- CC50 [1]: > 32 µg/mL
- HC50 [2]: 50 µg/mL

Compound: CCCCCCCCCCCCCCCC(=O)NCC(=O)N[C@@H](CCCN)C(=O)NCC(=O)N[C@@H](CCCN)C(=O)O [Pal-GOrn4, Pal-GOGO] (HELM PEPTIDE1{[CCCCCCCCCCCCCCCC(=O)[*:2]].G.[Orn].G.[Orn]}$$$$V2.0)
- CC50 [1]: > 32 µg/mL
- HC50 [2]: 80 µg/mL

Compound: FITC-GRHGSGLGHSSSHGQHGSGSGR ({FITC′}-GRHGSGLGHSSSHGQHGSGSGR) [FITC-HR 1-18]
- MBC90 ([6]; pH 5.5, 0.25% glucose): 2.35 µg/mL
- MBC100 ([6]; pH 5.5, 0.25% glucose): 75 µg/mL
- MBC90 ([7]; pH 5.0, 0.25% glucose): 0.15 µg/mL
- MBC100 ([7]; pH 5.0, 0.25% glucose): 1.18 µg/mL
- MBC90 ([3]; pH 5.5, 0.25% glucose): 300 µg/mL
- MBC100 ([3]; pH 5.5, 0.25% glucose): >300 µg/mL

Compound: GGHGSGLGHSSSHGQHGSGSGRSSSRGPY (Modified peptide derived from human hornerin (HR 1-17 R2657G))
- MBC90 ([6]; pH 5.5, 1% TSB): >300 µg/mL
- MBC100 ([6]; pH 5.5, 1% TSB): >300 µg/mL
- MBC90 ([7]; pH 5.0, 0.25% glucose): 0.0375 µg/mL
- MBC100 ([7]; pH 5.0, 0.25% glucose): 0.3 µg/mL

Compound: GRHGSGLGHSSSHGQHGSGSGGSSSRGPY (Modified peptide derived from human hornerin (HR 1-17 R2677G))
- MBC90 ([6]; pH 5.5, 1% TSB): 300 µg/mL
- MBC100 ([6]; pH 5.5, 1% TSB): >300 µg/mL
- MBC90 ([7]; pH 5.0, 0.25% glucose): 0.0375 µg/mL
- MBC100 ([7]; pH 5.0, 0.25% glucose): 0.15 µg/mL

Compound: GRHGSGLGHSSSHGQHGSGSGR [HR 1-18]
- CC50 [1]: > 32 µg/mL and > 15.2 µM
- HC50 [2]: > 300 µg/mL
- HC50 at 1 h [2]: > 143 µM
- CC50/MBC90 (S.aureus) ([3]; pH 5.5): No activity

Compound: GRHGSGLGHSSSHGQHGSGSGRSSSGGPY (Modified peptide derived from human hornerin (HR 1-17 R2681G))
- MBC90 ([6]; pH 5.5, 1% TSB): 300 µg/mL
- MBC100 ([6]; pH 5.5, 1% TSB): >300 µg/mL
- MBC90 ([7]; pH 5.0, 0.25% glucose): 0.0375 µg/mL
- MBC100 ([7]; pH 5.0, 0.25% glucose): 0.15 to 0.3 µg/mL

Compound: GRRGGGGGRGGGRGGRGGGGGR (Modified peptide derived from human hornerin (HR 1-18 GR))
- MBC90 ([7]; pH 5.0, 0.25% glucose): <0.019 µg/mL
- MBC100 ([7]; pH 5.0, 0.25% glucose): 0.075 µg/mL
- MBC90 ([7]; pH 5.5, 0.25% glucose): <0.006 µM
- MBC100 ([7]; pH 5.5, 0.25% glucose): 0.075 μg/ml and 0.04 μM
- MBC90 ([3]; pH 5.5, 0.25% glucose): >300 µg/mL
- MBC100 ([3]; pH 5.5, 0.25% glucose): >300 µg/mL
- Antifungal activity, C. albcans ATCC90028 [4]: I (I-inactive)
- Antifungal activity, C. neoformans ATCC 208821 [5]: I (I-inactive)

Compound: GRRGGRGGRGRGR [GR13]
- CC50 [1]: > 23.6 µM
- HC50 at 1 h [2]: > 220 µM

Compound: GRRGSGLGRSSSRGGRGSGSGR [HR 1-18 4H-4R]
- CC50 [1]: > 15.2 µM
- HC50 at 1 h [2]: > 150 µM
- MBC90 ([7]; pH 5.0, 0.25% glucose): 0.038 µg/mL
- MBC100 ([7]; pH 5.0, 0.25% glucose): 0.15 µg/mL
- P. aeruginosa MBC90 ([7]; pH 5.5): 0.018 µM
- P. aeruginosa MBC100 ([7]; pH 5.5): 0.142 µM
- MBC90 ([7]; pH 6.0, 0.25% glucose): 2.35 µg/mL
- MBC100 ([7]; pH 6.0, 0.25% glucose): 4.7 µg/mL
- MBC90 ([7]; pH 6.5, 0.25% glucose): 2.35 µg/mL
- MBC100 ([7]; pH 6.5, 0.25% glucose): 4.7 µg/mL
- MBC90 ([7]; pH 7.0, 0.25% glucose): 2.38 µg/mL and 2.35 µg/mL
- MBC100 ([7]; pH 7.0, 0.25% glucose): 9.38 µg/mL
- MBC90 ([3]; pH 5.5, 0.25% glucose): 150 µg/mL
- MBC100 ([3]; pH 5.5, 0.25% glucose): >300 µg/mL
- S. aureus MBC90 ([3]; pH 7.0): 4.46 µM
- S. aureus MBC100 ([3]; pH 7.0): >143 µM
- MBC90 ([3]; pH 7.0, 0.25% glucose): 9.35 µg/mL and 9.375 µg/mL
- MBC100 ([3]; pH 7.0, 0.25% glucose): >300 µg/mL
- max.killing ([3]; pH 7.0, 0.25% glucose): max.killing: 98.8%

Compound: GRRGSGLGRSSSRGQRGSGSGR [HR 1-18 HR]
- CC50 [1]: > 32 µg/mL
- HC50 [2]: > 300 µg/mL

Compound: HAHSGHGQSTQRGSRTAGR [FLG-22082-2100]
- CC50 [1]: > 12.9 µM
- HC50 at 1 h [2]: > 121 µM

Compound: HAHSGHGQSTQRGSRTAGRRGSGH (Peptide derived from human filaggrin-2 (FLG-2 2082-2105)) [FLG-22082-2105]
- reduction of candidacidal activity at pH 7.2 versus pH 5.5 (fold) ([6]; pH 7.2 vs pH 5.5): ~50 fold
- MBC90 ([7]; pH 5.5, 0.25% glucose): <0.075 µg/mL
- MBC100 ([7]; pH 5.5, 0.25% glucose): 0.038 µg/mL

Compound: HGSRSGQSSRGERHGSSSGSSSH (Peptide derived from human hornerin (HR 1-11))
- MBC90 ([6]; pH 5.5, 0.25% glucose): 9.38 µg/mL
- MBC100 ([6]; pH 5.5, 0.25% glucose): 150 µg/mL
- MBC90 ([7]; pH 5.0, 0.25% glucose): 0.075 µg/mL
- MBC100 ([7]; pH 5.0, 0.25% glucose): 2.35 µg/mL
- MBC100 ([7]; pH 5.5, 0.25% glucose): 2.35 µg/mL
- MBC90 ([7]; pH 5.5, 1% TSB): 2.35 µg/mL
- MBC100 ([7]; pH 5.5, 1% TSB): >300 µg/mL

Compound: SHHRHFRSHQCRR [LCE3C55-67]
- CC50 [1]: > 32 µg/mL
- HC50 [2]: > 300 µg/mL

Compound: SHHRPRLFHRRRH [LCE2B74-86]
- CC50 [1]: > 32 µg/mL
- HC50 [2]: > 300 µg/mL
